Results taken from patent US20210123061A1, “METHODS AND COMPOSITIONS FOR TREATING INFLAMMATORY DISEASE OR DISORDER” (THE BRIGHAM AND WOMEN'S HOSPITAL, INC., priority 2018, published 2021).
Where two headings read alike, the source gives them in different places.

B1: Ribosomal S6 Kinase-1 (RSK1), recombinant (protein)
chain: MEQDPKPPRLRLWALIPWLPRKQRPRISQTSLPVPGPGSGPQRDSDEGVLKEISITHHVKAGSEKADPSHFELLKVLGQGSFGKVFLVRKVTRPDSGHLYAMKVLKKATLKVRDRVRTKMERDILADVNHPFVVKLHYAFQTEGKLYLILDFLRGGDLFTRLSKEVMFTEEDVKFYLAELALGLDHLHSLGIIYRDLKPENILLDEEGHIKLTDFGLSKEAIDHEKKAYSFCGTVEYMAPEVVNRQGHSHSADWWSYGVLMFEMLTGSLPFQGKDRKETMTLILKAKLGMPQFLSTEAQSLLRALFKRNPANRLGSGPDGAEEIKRHVFYSTIDWNKLYRREIKPPFKPAVAQPDDTFYFDTEFTSRTPKDSPGIPPSAGAHQLFRGFSFVATGLMEDDGKPRAPQAPLHSVVQQLHGKNLVFSDGYVVKETIGVGSYSECKRCVHKATNMEYAVKVIDKSKRDPSEEIEILLRYGQHPNIITLKDVYDDGKHVYLVTELMRGGELLDKILRQKFFSEREASFVLHTIGKTVEYLHSQGVVHRDLKPSNILYVDESGNPECLRICDFGFAKQLRAENGLLMTPCYTANFVAPEVLKRQGYDEGCDIWSLGILLYTMLAGYTPFANGPSDTPEEILTRIGSGKFTLSGGNWNTVSETAKDLVSKMLHVDPHQRLTAKQVLQHPWVTQKDKLPQSQLSHQDLQLVKGAMAATYSALNSSKPTPQLKPIESSILAQRRVRKLPSTTL

How the values were obtained:
[1] = test system: RSK1 (S230p) phosphorylation site; conditions: P100 dataset, cited from earlier work
[2] = test system: RSK1 (RPS6KA1) gene expression; conditions: cited from earlier work; for RSK1 (agents that alter RSK1 expression): Table 1, pert_type trt_cp = small molecule, trt_sh = shRNA; for RPS6KA1 (small molecules that inhibit RSK1 expression): Table 2
[3] = molecular target: T1, Signal transducer and activator of transcription 1 (STAT1)
T1 chain: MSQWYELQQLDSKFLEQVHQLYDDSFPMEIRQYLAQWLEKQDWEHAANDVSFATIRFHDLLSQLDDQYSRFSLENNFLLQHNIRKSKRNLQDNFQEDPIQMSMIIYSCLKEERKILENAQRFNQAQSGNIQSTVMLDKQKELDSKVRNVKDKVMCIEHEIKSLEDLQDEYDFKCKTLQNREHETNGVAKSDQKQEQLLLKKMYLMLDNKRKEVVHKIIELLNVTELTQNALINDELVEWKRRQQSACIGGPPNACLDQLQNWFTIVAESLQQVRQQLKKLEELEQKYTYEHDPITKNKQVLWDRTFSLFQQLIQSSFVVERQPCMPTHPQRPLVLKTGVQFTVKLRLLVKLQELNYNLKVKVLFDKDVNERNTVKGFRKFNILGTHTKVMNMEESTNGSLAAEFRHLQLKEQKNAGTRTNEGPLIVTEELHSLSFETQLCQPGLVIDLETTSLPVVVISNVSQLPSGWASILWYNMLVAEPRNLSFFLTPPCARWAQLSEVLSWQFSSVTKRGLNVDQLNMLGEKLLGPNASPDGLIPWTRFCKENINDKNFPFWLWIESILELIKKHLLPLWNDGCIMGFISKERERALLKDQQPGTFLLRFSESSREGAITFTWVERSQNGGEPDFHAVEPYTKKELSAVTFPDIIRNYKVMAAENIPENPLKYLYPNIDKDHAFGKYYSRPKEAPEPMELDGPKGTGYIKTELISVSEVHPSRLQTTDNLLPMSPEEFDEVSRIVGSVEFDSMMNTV

| Molecule | RSK1 (agents that alter RSK1 expression) [2] | other results |
| --- | --- | --- |
| Cc1c[nH]c(-c2cnc(NCCNc3ccc(C#N)cn3)nc2-c2ccc(Cl)cc2Cl)n1 [CHIR-99021] | – | modulation of RSK1-S230p phosphorylation ([1]; YAPC cell line): modulated |
| CC1=NN(c2ccc(C(=O)O)cc2)C(=O)/C1=C/c1ccc(-c2cc(C)c(C)cc2[N+](=O)[O-])o1 [BRD-K68548958] | −0.99 | – |
| c1ccc2c(-c3cnn4cc(-c5ccc(N6CCNCC6)cc5)cnc34)ccnc2c1 [LDN-193189] | −1.38 | – |
| CC(C(=O)Nc1cccc(/N=C/c2c(O)ccc3ccccc23)c1)c1ccccc1 (stereo not shown) [salermide] | −0.98 | RPS6KA1 (small molecules that inhibit RSK1 expression) [2]: −0.98 |
| O=C(c1ccc(C(=O)N2CCC(N3CCCC3)CC2)c(Nc2ccccc2)c1)N1CCC(N2CCCC2)CC1 [UNC-1215] | – | modulation of RSK1-S230p phosphorylation ([1]; PC3 cell line): modulated |
| C=C1[C@@H](O)[C@@H]2O[C@]3(CC[C@H](/C=C/[C@@H](C)[C@@H]4CC(C)=C[C@@]5(O[C@H](C[C@@](C)(O)C(=O)O)CC[C@H]5O)O4)O3)CC[C@H]2O[C@@H]1[C@@H](O)C[C@H](C)[C@H]1O[C@@]2(CCCCO2)CC[C@H]1C [okadaic acid] | – | modulation of RSK1-S230p phosphorylation ([1]; YAPC cell line): modulated |
| C[S+]([O-])CCCCN=C=S (stereo not shown) [sulforaphane] | −0.50 | – |
| C=C[C@](C)(O)CC/C=C(\C)C(=O)O[C@H]1[C@H](O)[C@@H](O)[C@H](O[C@@](C)(C=C)CC/C=C(\CO)C(=O)O[C@H]2C[C@]3(C(=O)O[C@@H]4O[C@H](CO)[C@@H](O)[C@H](O)[C@H]4O[C@@H]4O[C@@H](C)[C@H](O[C@@H]5O[C@@H](CO)[C@H](O)[C@H]5O)[C@@H](O[C@@H]5O[C@H](CO)[C@@H](O)[C@H](O)[C@H]5O)[C@H]4O)[C@H](O)C[C@]4(C)C(=CC[C@@H]5[C@@]6(C)CC[C@H](O[C@@H]7O[C@H](CO[C@@H]8O[C@H](C)[C@H](O)[C@H](O)[C@H]8O[C@@H]8OC[C@@H](O)[C@H](O)[C@H]8O)[C@@H](O)[C@H](O)[C@H]7NC(C)=O)C(C)(C)[C@@H]6CC[C@]54C)[C@@H]3CC2(C)C)O[C@@H]1C [avicin-g] | −1.17 | – |
| C=CCn1c(=O)c2cnc(Nc3ccc(N4CCN(C)CC4)cc3)nc2n1-c1cccc(C(C)(C)O)n1 [MK-1775] | – | RSK1 expression effect under various conditions ([2]; FIG. 20): U937-specific effect |
| FC(F)c1nc2ccccc2n1-c1nc(N2CCOCC2)nc(N2CCOCC2)n1 [ZSTK-474] | −0.73 | – |
| CCCC[C@@H](C)/C=C(C)/C=C(\C)C(=O)NC1=C[C@@](O)(/C=C/C=C/C=C/C(=O)NC2=C(O)CCC2=O)C2O[C@@H]2C1=O (stereo partly drawn) [manumycin-a, N-[(1S,5S,6R)-5-hydroxy-5-[(1E,3E,5E)-7-[(2-hydroxy-5-oxo-1-cyclopenten-1-yl)amino]-7-oxo-1,3,5-heptatrien-1-yl]-2-oxo-7-oxabicyclo [4.1.0]hept-3-en-3-yl]-2E,4E,6R-trimethyl,2,4-decadienamide] | −1.48 | RPS6KA1 (small molecules that inhibit RSK1 expression) [2]: −1.48 |
| CC(C)C[C@@H](C(=O)N[C@H](C(=O)OC1CCCC1)c1ccccc1)[C@H](O)C(=O)NO [tosedostat, αS-[[(2R)-2-[(1S)-1-hydroxy-2-(hydroxyamino)-2-oxoethyl]-4-methyl-1-oxopentyl]amino]-benzeneacetic acid, cyclopentyl ester] | −0.96 | RPS6KA1 (small molecules that inhibit RSK1 expression) [2]: −0.96 |
| O=C1[C@H](Cc2ccc(O)cc2)N2C(=O)CCN(C(=O)NCc3ccccc3)[C@H]2CN1Cc1cccc2ccccc12 [BRD-K73261812] | −0.97 | – |
| CCNC(=O)c1noc(-c2cc(C(C)C)c(O)cc2O)c1-c1ccc(CN2CCOCC2)cc1 [NVP-AUY922] | −1.23 | – |
| C/C=C/C/C=C/CCC(=O)[C@H]1O[C@H]1C(N)=O [cerulenin, (2R,3S)-3-[(4E,7E)-1-Oxo-4,7-nonadien-1-yl]-2-oxiranecarboxamide] | −1.40 | RPS6KA1 (small molecules that inhibit RSK1 expression) [2]: −1.40 |
| CN(C)C(=O)c1cccc(-c2cccc(-c3nc(C(=O)NC4CCCCC4)cc4c3[C@@H](CCO)N([S@+]([O-])C(C)(C)C)C4)c2)c1 [BRD-K08663380] | −0.65 | – |
| CN[C@@H]1C[C@H]2O[C@@](C)([C@@H]1OC)n1c3ccccc3c3c4c(c5c6ccccc6n2c5c31)C(=O)NC4 [Staurosporine] | – | modulation of RSK1-S230p phosphorylation ([1]; MCF7 cell line): modulated |
| C=CCNC1=C2C[C@@H](C)C[C@H](OC)[C@H](O)[C@@H](C)/C=C(\C)[C@H](OC(N)=O)[C@@H](OC)/C=C\C=C(/C)C(=O)NC(=CC1=O)C2=O [tanespimycin, 17-N-allylamino-17-demethoxygeldanamycin] | – | RPS6KA1 (small molecules that inhibit RSK1 expression) [2]: −1.17 |
| O=C(CCCCCCC(=O)Nc1ccccc1)NO [vorinostat] | – | modulation of RSK1-S230p phosphorylation ([1]; YAPC cell line): modulated |
| Oc1cccc(-c2nc(N3CCOCC3)c3oc4ncccc4c3n2)c1 [PI-103] | −0.54 | – |
| B1 | – | phosphorylation of STAT1 at Ser727 in vitro (kinase reaction, immunoblot) [3]: RSK1 is capable of phosphorylating STAT1 at Ser727 in vitro |
